Measured values reported in ChEMBL document CHEMBL1201862, “PubChem BioAssay data set” (2004).
Calls of active or inactive are those of the source.

Legend:
[1] = reduction of Shn3 3'UTR-driven luciferase in osteoblasts – cell-based, Clone20 osteoblasts, firefly luciferase, cherry-picked, dose response (AID 624132); format: functional;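 also: firefly luciferase luminescence from reporter carrying the Shn3 3'UTR in osteoblasts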
[2] = Shn3 3'UTR reporter signal decrease – cell-based, Clone20 osteoblasts, firefly luciferase, cherry-pick, set 2, Schnurri-3 inhibitor project, dose response (AID 720490); format: functional;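 also: actives lower the luminescence signal as inhibitors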
[3] = microbe, parasite or virus in culture; format: functional; conditions: Mycobacterium tuberculosis
[4] = target: Mitogen-activated protein kinase 10 (Homo sapiens, UniProt P53779); assay: Dose response biochemical screening assay for inhibitors of c-Jun N-Terminal Kinase 3 (JNK3). [Related pubchem assays: 746 ]
[5] = target: T1, Heat shock factor protein 1 (Mus musculus, UniProt P38532); assay: enhancement of HSF1-driven luciferase signal – cell-based, NIH3T3, luminescence, dose retest, confirmation (AID 435004); format: functional;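 also: stress induced by proteasome inhibitor MG132 added 30 min after compound; luciferase reporter driven by HSF1 response element in NIH3T3 cells; actives raise luminescence as potentiators of the MG132 stress response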
T1 sequence (P38532 whole entry): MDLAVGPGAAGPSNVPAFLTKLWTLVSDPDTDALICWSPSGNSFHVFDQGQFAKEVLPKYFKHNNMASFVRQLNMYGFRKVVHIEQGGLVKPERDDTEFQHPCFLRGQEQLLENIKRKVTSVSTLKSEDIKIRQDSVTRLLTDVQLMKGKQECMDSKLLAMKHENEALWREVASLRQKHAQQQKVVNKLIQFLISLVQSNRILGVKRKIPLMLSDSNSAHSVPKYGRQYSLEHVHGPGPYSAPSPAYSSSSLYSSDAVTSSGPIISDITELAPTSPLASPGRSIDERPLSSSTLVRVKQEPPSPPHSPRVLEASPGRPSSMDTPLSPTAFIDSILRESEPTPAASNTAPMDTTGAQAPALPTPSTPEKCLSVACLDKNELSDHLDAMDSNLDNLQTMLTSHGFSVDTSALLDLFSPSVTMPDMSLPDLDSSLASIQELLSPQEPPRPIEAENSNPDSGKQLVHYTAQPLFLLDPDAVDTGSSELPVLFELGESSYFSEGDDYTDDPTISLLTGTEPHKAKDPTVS

Major prion protein = Major prion protein (Homo sapiens, UniProt P04156); format: functional, cell-based
Streptokinase A = target: T2, Streptokinase A (Streptococcus pyogenes serotype M1, UniProt P10520); assay: viability-normalized secreted streptokinase activity reduction – plasminogen activation absorbance, OD405, dose response (AID 1914); format: functional, Streptococcus pyogenes M1 GAS;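 also: secreted streptokinase activity via plasminogen activation per viability signal from cell pellet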
T2 sequence (P10520 whole entry): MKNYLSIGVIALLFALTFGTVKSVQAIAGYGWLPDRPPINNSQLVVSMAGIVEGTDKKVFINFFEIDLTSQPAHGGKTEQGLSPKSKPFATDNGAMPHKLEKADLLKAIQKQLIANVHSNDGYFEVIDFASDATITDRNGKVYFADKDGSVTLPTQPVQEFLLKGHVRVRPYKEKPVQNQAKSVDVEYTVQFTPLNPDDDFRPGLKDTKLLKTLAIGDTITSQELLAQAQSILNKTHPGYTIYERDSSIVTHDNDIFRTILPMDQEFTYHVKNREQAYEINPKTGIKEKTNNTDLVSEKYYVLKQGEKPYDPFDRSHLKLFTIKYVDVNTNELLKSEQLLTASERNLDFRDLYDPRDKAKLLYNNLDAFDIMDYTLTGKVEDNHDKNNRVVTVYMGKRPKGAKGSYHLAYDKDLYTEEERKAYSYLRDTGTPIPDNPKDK

[6] = Counterscreen for antagonists of the human trace amine associated receptor 1 (hTAAR1): Fluorescence-based cell-based high throughput dose response assay to identify nonselective Ga16 antagonists.; format: functional
[7] = target: T3, Trace amine-associated receptor 1 (Homo sapiens, UniProt Q96RJ0); assay: Fluorescence-based cell-based high throughput dose response assay to identify antagonists of the human trace amine associated receptor 1 (TAAR1).; format: functional
T3 sequence (Q96RJ0 whole entry): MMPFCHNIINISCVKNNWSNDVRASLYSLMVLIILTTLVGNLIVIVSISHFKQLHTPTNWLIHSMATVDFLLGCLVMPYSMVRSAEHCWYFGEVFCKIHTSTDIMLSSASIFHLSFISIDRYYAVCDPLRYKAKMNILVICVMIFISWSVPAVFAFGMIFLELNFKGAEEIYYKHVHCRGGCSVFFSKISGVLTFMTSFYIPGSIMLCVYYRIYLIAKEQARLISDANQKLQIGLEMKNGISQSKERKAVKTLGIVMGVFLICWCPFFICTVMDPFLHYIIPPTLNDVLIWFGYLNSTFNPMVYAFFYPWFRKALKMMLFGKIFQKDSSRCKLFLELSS

Streptococcus = assay: GAS UMAA2166 growth inhibition – luminescence, BacTiterGlo, counter-screen for streptokinase expression inhibitor project, dose response (AID 1915); format: functional, organism-based;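 also: potency for reduction of bacterial viability or growth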
[8] = target: T3, Trace amine-associated receptor 1; assay: Counterscreen for antagonists of the human trace amine associated receptor 1 (hTAAR1): Fluorescence-based cell-based high throughput dose response assay to identify TAAR1 Agonists.; format: functional
H9c2 = assay: cells; format: functional, cell-based; conditions: Rattus norvegicus, H9c2, Myocardium;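 also: confirmatory concentration-response retest of ultra-high-throughput screening hits for modulation of myocardial damage; cell death induced by hydrogen peroxide oxidative stress; compound pretreatment for 60 min then peroxide exposure for 2 h; potency is for protecting the cells against peroxide damage rather than for killing them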
[9] = test system: Streptococcus sp. 'group A'; assay: Streptococcus pyogenes SK(-)GAS viability under kanamycin – luminescence, BacTiterGlo, confirmation, counter-screen for streptokinase expression inhibitor project, dose response (AID 1900); format: functional, organism-based
[10] = Counterscreen for […] of the human trace amine associated receptor 1 (TAAR1): Fluorescence-based cell-based high throughput dose response assay to identify nonselective Ga16 agonists.; format: functional
[11] = target: T4, Scavenger receptor class B member 1 (Mus musculus, UniProt Q61009); assay: blockers of DiI-HDL lipid transfer via SR-BI – cell-based, ldlA[mSR-BI] CHO, DiI fluorescence, dry powder, set 10, dose response (AID 624029); format: functional
[12] = target: T4, Scavenger receptor class B member 1; assay: mouse SR-BI DiI-HDL transfer blockers – ldlA[mSR-BI] CHO cells, fluorescence plate reader, dry powder, set 9, dose response (AID 623880); format: functional, cell-based
[13] = Luminescence-based cell-based high throughput dose response assay to identify activators of the DAF-12 from the parasite S. stercoralis (ssDAF-12).; format: functional
[14] = target: T5, Beta-2 adrenergic receptor (Homo sapiens, UniProt P07550); assay: ADRB2 activation measured by internalization – cell-based, FAP fluorogen, flow cytometry, cherry pick 1, dose response (AID 588763); format: functional
[15] = target: T5, Beta-2 adrenergic receptor; assay: Dose response for HTS for Beta-2AR agonists via FAP method from Powderset3.; format: functional
[16] = Counterscreen for activators of the function of SWI/SNF related, matrix associated, actin dependent regulator of chromatin, subfamily a, member 2 (SMARCA2, BRM): Luminescence-based cell-based high throughput dose response assay to identify non-selective compounds using the VP16 reporter assay.; format: functional
[17] = target: SWI/SNF-related matrix-associated actin-dependent regulator of chromatin subfamily A member 2 (Homo sapiens, UniProt P51531); assay: Luminescence-based cell-based high throughput dose response assay to identify activators of the function of SWI/SNF related, matrix associated, actin dependent regulator of chromatin, subfamily a, member 2 (SMARCA2, BRM).; format: functional
[18] = inhibitors of TRPM1-promoter reporter in SK-MEL-5 – cell-based, luciferase, dry powder, set 8, MITF inhibitor project, dose response (AID 624430); format: functional
[19] = MITF: Counter assay: A375 proliferation Measured in Cell-Based System Using Plate Reader - 2084-03_Inhibitor_Dose_DryPowder_Activity_Set8.; format: functional; conditions: A-375
[20] = MITF Orthogonal Assay: SK-MEL-5 CTG Assay Measured in Cell-Based System Using Plate Reader - 2084-02_Inhibitor_Dose_DryPowder_Activity_Set7.; format: functional
[21] = blockers of FN fibrillogenesis by fibroblasts – AH1F cells, Alexa488-FN fluorescence, cherry-picks, dose response (AID 1035475); format: functional, cell-based
[22] = viability loss in HepG2 hepatoma cells – cell-based, cherry-picks, set 5, cytotoxicity control, dose response (AID 1053118); format: functional
[23] = viability loss in A549 lung cancer cells – cell-based, cherry-picks, […], cytotoxicity control, dose response (AID 1053119); format: functional
[24] = viability loss in HEK293 kidney cells – cell-based, cherry-picks, set 5, cytotoxicity control, dose response (AID 1053117); format: functional
[25] = cytotoxicity in HEK293 background cells – cell-based, dry powder, set 2, counter-screen for EBV LMP1 inhibitor project, dose response (AID 624374); format: functional

Compound: O=C(c1nnc(O)c2ccccc12)N1CCN(C2c3ccccc3-c3ccccc32)CC1
- AC50 [1]: 7.69 µM (active)
- AC50 [2]: 10.7 µM (active)
- CC50 [3]: > 40 µM (active)

Compound: CCCc1nc(SCC(=O)Nc2cc(C)on2)c2ccccc2n1
- IC50 [4]: 83.5 µM (not active)
- EC50 [5]: 31.6 µM (active)
- IC50 (cells): > 138 µM (inactive)
- IC50 (Major prion protein): 1.01 µM (active)

Compound: COc1cccc(-c2nn(-c3ccccc3)cc2C(=O)Nc2nccs2)c1
- EC50 (Streptokinase A): 35.9 µM (active)
- IC50 [6]: > 29.9 µM (inactive)
- IC50 [7]: 4.72 µM (active)
- EC50 (Streptococcus): > 150 µM (not active)
- EC50 [8]: > 29.9 µM (inactive)
- IC50 (H9c2): 7.3 µM (active)
- EC50 [9]: 14.9 µM (active)
- EC50 [10]: > 29.9 µM (inactive)

Compound: CC(C)CN(C(=O)COC(=O)C12CC3CC(CC(O)(C3)C1)C2)C1CCS(=O)(=O)C1 (stereo not given)
- AC50 [11]: 0.252 µM (active)
- AC50 [12]: 0.209 µM (active)

Compound: COc1ccc(S(=O)(=O)Cc2ccc(C(=O)NCCCN3CCc4ccccc4C3)o2)cc1
- IC50 [13]: > 67.5 µM (inactive)

Compound: COc1ccc(OC)c(CCNC(=O)C2CCN(c3nnc(-n4cccc4)s3)CC2)c1
- EC50 [14]: 2.85 µM (active)
- EC50 [15]: 1.51 µM (active)

Compound: N#Cc1c(NCCN)nc(-c2ccco2)c2c1CCCC2
- EC50 [16]: > 91.2 µM (inactive)
- EC50 [17]: 10.8 µM (inactive)

Compound: CN(C1=CC(=O)c2ccccc2C1=O)c1ccccc1
- AC50 [18]: 16.2 µM (active)
- AC50 [19]: > 70 µM (inactive)
- AC50 [20]: 2.32 µM (active)

Compound: COc1ccc(S(=O)(=O)N2CCCCC2c2cc(C(=O)Nc3ccc4c(c3)OCO4)no2)cc1 (stereo not given)
- AC50 [21]: 32.6 µM (active)
- AC50 [22]: 15.4 µM (active)
- AC50 [23]: 23.9 µM (active)
- AC50 [24]: 11.4 µM (active)

Compound: COc1ccccc1C(=O)Nc1ccc2c(c1)C(=O)N(C)[C@@H]1CC[C@H](CC(=O)NCCc3ccncc3)O[C@H]1CO2
- AbsAC35 [25]: 153.61 µM
